# Tests used:
# Assay type in all cases: cell-based, Escherichia coli
# [1] = tested on: E. coli AW405; assay: video microscopy motion analysis of bacteria; conditions: first 5-15 seconds after addition of attractant
# Protocol: FIG. 2A: Results of video microscopy motion analysis experiments. Bacteria (Escherichia coli) were treated with buffer alone, galactose, or compound 1 or 3 (Scheme 1) at the indicated saccharide concentrations. The results represent the average from at least five independent experiments performed in triplicate. Error bars represent the deviation between per-second averages during the ten second interval.
# Ligands functionalized with galactose such as monovalent ligand 1 and multivalent ligand 3, also serve as attractants in vivo. […] To observe the effects of synthetic ligands on tumbling frequency, E. coli were treated with galactose or galactose-bearing ligands, and bacterial motion was recorded and analyzed using the method of Sager et al.. The tumbling frequency was assessed by averaging the mean angular velocity of the paths obtained in the first 5-15 seconds after addition of attractant (FIG. 2A). […]
# Partially permeabilized bacteria (25 μM EDTA for 3 min. at room temperature, then quench with 50 μM CaCl2) at an OD550 of 0.1 were placed under a cover slip supported by additional cover slips in the method of Sager et al.. […] The bacterial motion at 28° C. was recorded, and the paths were analyzed using the ExpertVision system. Paths derived from the first 5 to 15 seconds following the introduction of attractant were analyzed. […] Data were analyzed using the Q and Students tests.
# [2] = tested on: E. coli; assay: E. coli capillary accumulation assay
# Protocol: FIGS. 3A and 3B: Results of E. coli capillary accumulation assays. The number of bacteria accumulated is plotted versus the concentration of the attractant (galactose or compounds 1-4, Scheme 1) calculated on a saccharide residue basis. (A): Results are shown for capillaries filled with buffer alone, compound 1, and compound 2 or (B): buffer alone, compound 3 and compound 4 at the indicated concentrations. The vertical line at 1 mM indicates the concentration of maximum chemotaxis for the monomeric compound 1. […] Results are the average of 3 to 6 experiments performed in duplicate and error bars represent a single standard deviation. Partial permeabilization was required to obtain chemotaxis towards 4, and was utilized for all experiments.
# E. coli were subjected to concentration gradients of compounds 1-4 in capillary accumulation assays to determine the concentration at which the maximum chemotactic response is achieved and the number of bacteria that accumulate at this maximum.
# Concentrations of maximum chemotaxis of 3 and 4 are 100- and 5000-fold lower, respectively, than free galactose (FIG. 3B). […]
# E. coli from an overnight culture were grown in LB to OD550 0.4-0.6, washed twice with E. coli chemotaxis buffer, and then partially permeabilized. […] Data was analyzed using the Q and Students tests.
# [3] = tested on: bacterial chemoreceptors of E. coli AW405 or RP 1078 (cheW); assay: immunofluorescence microscopy of chemoreceptor organization; conditions: E. coli cheW mutants, 5 mM, anti-Tsr labeling
# Protocol: Fluorescence microscopy experiments were performed to visualize changes in chemotaxis receptor organization upon treatment with saccharide-carrying ligands. These experiments can determine directly whether or not multivalent ligands can influence chemoreceptor reorganization. It had been shown that wild-type E. coli localize chemoreceptors to their poles and that inactivation of the structural protein, CheW, results in a random distribution of chemoreceptors on the cell. The ability of ROMP-derived arrays to localize the chemoreceptors was examined using E. coli cheWmutants. Bacteria were treated with 1, 3, or 4, fixed, and labeled with an antibody to the bacterial chemoreceptors (anti-Tsr). […]
# To confirm the ability of multivalent ligands to alter the organization of the chemoreceptors in the bacterial membrane E. coli were treated with compound 8, a galactose-bearing multivalent ligand having a fluorescent label (Scheme 1). When E. coli were treated with 8 or a fluorescein-labeled anti-Tsr antibody 14, the fluorescence patterns observed were similar. […]
# E. coli AW405 or RP 1078 (cheW) were pretreated with buffer alone or with compounds 1, 3, 4, or 8 at 5 mM in a 10 μL total volume of chemotaxis buffer. […] Fluorescence microscopy was performed on a Zeiss Axioscope at 1000×using an oil immersion lens. […]
smiles,measurement,setting,value
O=C(NCCOC1OC(CO)C(O)C(O)C1O)C1C[C@@H]2C=CC1C2 (stereo partly shown) [Compound 1],mean angular velocity (tumbling frequency) after addition of attractant,[1],produced similar effects to that of the free chemoattractant
same,chemoattractant activity in mutants,[2]; ggbp (AW550 and AW543) or trg (AW701) E. coli mutants,not a chemoattractant
same,concentration of maximum chemotaxis,"[2]; saccharide (galactose) residue basis, partially permeabilized E. coli, 30° C., 60 min",1 mM
same,effect on chemoreceptor distribution,[3],no effect on receptor distribution
